Measurements as given in PubChem BioAssay (NCI).
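GI50 marks 50% less growth. TGI marks complete inhibition of growth.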

What was measured:
Assay in all cases: NCI tumour cell line growth inhibition, 384-well format; in the data active = GI50 below about 0.43 µM; inactive = the rest
SK-OV-3 ovarian = tested on: SK-OV-3 ovarian
SK-MEL-2 melanoma = tested on: SK-MEL-2 melanoma
PC-3 prostate = tested on: PC-3 prostate
HT29 colon = tested on: HT29 colon
SN12C renal = tested on: SN12C renal
HS 578T breast = tested on: HS 578T breast
A498 renal = tested on: A498 renal
TK-10 renal = tested on: TK-10 renal
SW-620 colon = tested on: SW-620 colon
HOP-92 NSCLC = tested on: HOP-92 NSCLC
OVCAR-5 ovarian = tested on: OVCAR-5 ovarian
RPMI-8226 leukemia = tested on: RPMI-8226 leukemia
DU-145 prostate = tested on: DU-145 prostate
SR leukemia = tested on: SR leukemia
NCI-H23 lung = tested on: NCI-H23 lung
CCRF-CEM leukemia = tested on: CCRF-CEM leukemia
HOP-62 NSCLC = tested on: HOP-62 NSCLC
SNB-75 CNS = tested on: SNB-75 CNS
MALME-3M melanoma = tested on: MALME-3M melanoma
UACC-62 melanoma = tested on: UACC-62 melanoma
MDA-MB-468 breast = tested on: MDA-MB-468 breast
NCI-H522 lung = tested on: NCI-H522 lung
UO-31 renal = tested on: UO-31 renal
IGROV1 ovarian = tested on: IGROV1 ovarian
SNB-19 CNS = tested on: SNB-19 CNS
M14 melanoma = tested on: M14 melanoma
SF-295 CNS = tested on: SF-295 CNS
HCT-15 colon = tested on: HCT-15 colon
UACC-257 melanoma = tested on: UACC-257 melanoma
KM12 colon = tested on: KM12 colon
SF-268 CNS = tested on: SF-268 CNS
OVCAR-8 ovarian = tested on: OVCAR-8 ovarian
OVCAR-3 ovarian = tested on: OVCAR-3 ovarian
RXF 393 renal = tested on: RXF 393 renal
U251 glioblastoma = tested on: U251 glioblastoma
BT-549 breast = tested on: BT-549 breast
HL-60(TB) leukemia = tested on: HL-60(TB) leukemia
786-0 renal = tested on: 786-0 renal
NCI-H460 NSCLC = tested on: NCI-H460 NSCLC
HCC-2998 colon = tested on: HCC-2998 colon
NCI-H322M lung = tested on: NCI-H322M lung
MOLT-4 leukemia = tested on: MOLT-4 leukemia
LOX IMVI melanoma = tested on: LOX IMVI melanoma
CAKI-1 renal = tested on: CAKI-1 renal
A549 NSCLC = tested on: A549 NSCLC
SK-MEL-28 melanoma = tested on: SK-MEL-28 melanoma
T-47D breast = tested on: T-47D breast
K-562 leukemia = tested on: K-562 leukemia
NCI-H226 lung = tested on: NCI-H226 lung
OVCAR-4 ovarian = tested on: OVCAR-4 ovarian
MDA-MB-231 breast = tested on: MDA-MB-231 breast
ACHN renal = tested on: ACHN renal
MDA-MB-435 melanoma = tested on: MDA-MB-435 melanoma
HCT-116 colon = tested on: HCT-116 colon
SF-539 CNS = tested on: SF-539 CNS
SK-MEL-5 melanoma = tested on: SK-MEL-5 melanoma

COc1ccc(-c2c(Nc3ccccn3)nc3c(C4=CCCCC4)c(-c4ccccc4)[nH]n3c2=O)cc1
8410 nM: TGI (LOX IMVI melanoma)
2780 nM: TGI (MDA-MB-468 breast)
14500 nM: TGI (HS 578T breast)
2640 nM: TGI (SK-MEL-5 melanoma)
1850 nM: TGI (HL-60(TB) leukemia)
10900 nM: TGI (NCI-H522 lung)
9100 nM: TGI (SK-MEL-2 melanoma)
3320 nM: TGI (OVCAR-3 ovarian)
9610 nM: TGI (HOP-62 NSCLC)
5720 nM: TGI (HCT-116 colon)
2760 nM: TGI (NCI-H460 NSCLC)
1100 nM: TGI (CCRF-CEM leukemia)
active: GI50 (A498 renal) 309 nM | GI50 (RPMI-8226 leukemia) 288 nM | GI50 (SR leukemia) 222 nM | GI50 (CCRF-CEM leukemia) 304 nM | GI50 (RXF 393 renal) 108 nM | GI50 (NCI-H460 NSCLC) 353 nM | GI50 (MOLT-4 leukemia) 189 nM
inactive: GI50 (SK-OV-3 ovarian) 604 nM | GI50 (SK-MEL-2 melanoma) 2180 nM | GI50 (PC-3 prostate) 1580 nM | GI50 (HT29 colon) 4210 nM | GI50 (SN12C renal) 1990 nM | GI50 (HS 578T breast) 1060 nM | GI50 (TK-10 renal) 1640 nM | GI50 (SW-620 colon) 3000 nM | GI50 (HOP-92 NSCLC) 1940 nM | GI50 (OVCAR-5 ovarian) 2320 nM | GI50 (DU-145 prostate) 727 nM | GI50 (NCI-H23 lung) 1330 nM | GI50 (HOP-62 NSCLC) 717 nM | GI50 (SNB-75 CNS) 8110 nM | GI50 (MALME-3M melanoma) 1290 nM | GI50 (UACC-62 melanoma) 890 nM | GI50 (MDA-MB-468 breast) 967 nM | GI50 (NCI-H522 lung) 1040 nM | GI50 (UO-31 renal) 3360 nM | GI50 (IGROV1 ovarian) 2450 nM | GI50 (SNB-19 CNS) 2000 nM | GI50 (M14 melanoma) 841 nM | GI50 (SF-295 CNS) 1120 nM | GI50 (HCT-15 colon) 1360 nM | GI50 (UACC-257 melanoma) 1610 nM | GI50 (KM12 colon) 2160 nM | GI50 (SF-268 CNS) 589 nM | GI50 (OVCAR-8 ovarian) 2110 nM | GI50 (OVCAR-3 ovarian) 1000 nM | GI50 (U251 glioblastoma) 1270 nM | GI50 (BT-549 breast) 461 nM | GI50 (HL-60(TB) leukemia) 580 nM | GI50 ([…]-0 renal) 2410 nM | GI50 (HCC-2998 colon) 2410 nM | GI50 (NCI-H322M lung) 1060 nM | GI50 (LOX IMVI melanoma) 989 nM | GI50 (CAKI-1 renal) 1380 nM | GI50 (A549 NSCLC) 1440 nM | GI50 (SK-MEL-28 melanoma) 3090 nM | GI50 (T-47D breast) 1060 nM | GI50 (K-562 leukemia) 928 nM | GI50 (NCI-H226 lung) 2010 nM | GI50 (OVCAR-4 ovarian) 1590 nM | GI50 (MDA-MB-231 breast) 1240 nM | GI50 (ACHN renal) 1790 nM | GI50 (MDA-MB-435 melanoma) 3080 nM | GI50 (HCT-116 colon) 1280 nM | GI50 (SF-539 CNS) 1460 nM | GI50 (SK-MEL-5 melanoma) 835 nM
1090 nM: TGI (SR leukemia)
2720 nM: TGI (RXF 393 renal)
> 100000 nM: TGI (SK-OV-3 ovarian) | TGI (PC-3 prostate) | TGI (HT29 colon) | TGI (SN12C renal) | TGI (A498 renal) | TGI (TK-10 renal) | TGI (SW-620 colon) | TGI (OVCAR-5 ovarian) | TGI (NCI-H23 lung) | TGI (SNB-75 CNS) | TGI (MALME-3M melanoma) | TGI (UACC-62 melanoma) | TGI (UO-31 renal) | TGI (IGROV1 ovarian) | TGI (SNB-19 CNS) | TGI (M14 melanoma) | TGI (SF-295 CNS) | TGI (HCT-15 colon) | TGI (UACC-257 melanoma) | TGI (KM12 colon) | TGI (SF-268 CNS) | TGI (OVCAR-8 ovarian) | TGI (U251 glioblastoma) | TGI (BT-549 breast) | TGI (786-0 renal) | TGI (HCC-2998 colon) | TGI (NCI-H322M lung) | TGI (CAKI-1 renal) | TGI (A549 NSCLC) | TGI (SK-MEL-28 melanoma) | TGI (T-47D breast) | TGI (K-562 leukemia) | TGI (NCI-H226 lung) | TGI (OVCAR-4 ovarian) | TGI (ACHN renal) | TGI (MDA-MB-435 melanoma) | TGI (SF-539 CNS)
6850 nM: TGI (MDA-MB-231 breast)
74900 nM: TGI (HOP-92 NSCLC)
431 nM: TGI (MOLT-4 leukemia)
9510 nM: TGI (DU-145 prostate)
1880 nM: TGI (RPMI-8226 leukemia)
